Assay: Diffusion of isoflavones from films into an agar plate (gelose) matrix simulating the vaginal mucous membrane
Assay type: physicochemical
Text: FIG. 1 is a flowchart pertaining to the protocol for evaluating the diffusion of isoflavones made out of films according to the invention towards a matrix simulating the vaginal mucous membrane;
The films according to the present invention meeting the formulations 1 to 6 described here above were associated with an extract obtained from soybeans. The extract is incorporated directly into the mixture so that its content is 4.2% by mass. This extract has the particular feature of being rich in isoflavones and especially having high daidzin and genistin content.
The tests explained here below show the possible use of films according to the invention for making products for administering active ingredients by diffusion of these ingredients from the film towards the vaginal mucous membrane.
In these tests, in order to model the vaginal mucous membrane, an agar plate with an Agar concentration of 30 g/l was used.
The diffusion of daidzin and genistin in the lower agar plate and the upper agar plate was studied with films complying with the formulations 1, 2 and 3 described here above. The results of this study are indicated in the two graphs of FIG. 2.
The influence of the proportion by weight of film-forming agent (sodium caseinate (NaCAS)) in films according to the invention meeting the formulations 5, 2 and 4 described here above on the diffusion of daidzin (a) and genistin (b) has also been studied. The results of this study are indicated in the two graphs shown in FIG. 3 in which the concentration in isoflavones diffused has been related in terms of percentage to the case where the entire active ingredient would have been diffused.
The hydrophobic agent chosen for this study is soy lecithin. A suspension of this compound was also prepared using 5 g of soy lecithin powder mixed with 10 mL of ultra-pure water. The films complying with the formulations 1 and 2 were then coated with this suspension (on the upper and lower faces) and then placed on gelose in order to carry out migration tests.
Two rates of plasticization were examined, corresponding to the formulations 4 and 5 of the films according to the invention described here above.

**Q.** For Daidzin, which “concentration in gelose under equilibrium” value (films of formulations 1, 2 and 3 with 4.2% soybean extract, agar 30 g/l (FIG. 2)) is on record?
**A.** The value was “about 10 μg/mL”.

**Q.** What about the “isoflavone diffused towards the gelose after 24 hours of contact” value (films of formulations 5, 2 and 4 (varied proportion of sodium caseinate), % of total active ingredient (FIG. 3)) of the same substance?
**A.** Its value is “more than 90%”.

**Q.** And the “isoflavone diffused in the gelose after 48 hours of contact, with soy lecithin coating” value (formulations 1 and 2 coated with soy lecithin on upper and lower faces (FIG. 4))?
**A.** Its value is 40%.

**Q.** What about the “isoflavone diffused after 30 hours, plasticization rate 20%” value (plasticization rate 20% glycerol (FIG. 5)) of the same substance?
**A.** The value was 90%.

**Q.** And the “isoflavone diffused after 30 hours, glycerol rate 30% by mass” value (plasticization rate 30% glycerol (FIG. 5))?
**A.** The value was roughly 100%.

From patent US9345669B2, “Biodegradable natural films based on co-products derived from industrial-scale seed-treatment processes” (Sojasun Technologies, priority 2011, dated 2016)
